Earlier results as cited in US8101589B2, “Nitric oxide-releasing molecules” (Noxilizer, Inc., priority 2004, dated 2012).

Settings: literature (Traube, 1898)

methylene bisdiazeniumdiolate
NO release in solution: inability to release NO
